Experimental data taken from patent US9283236B2 (HUMAN MATRIX SCIENCES, LLC, priority 2008, dated 2016).
Entries after “also recorded” stand apart in the source; their conditions may differ. Where two headings read alike, the source gives them in different places.

Experiments:
[1] = tested on: human fetal cardiac fibroblasts; experiment: Quantitative assay of [3H]valine-labeled insoluble elastin; assay type: cell-based; conditions: for effect on aldosterone-induced increase in insoluble elastin production: agent added 1 hour before aldosterone (50 nM or 1 to 50 nmol/L)
[2] = tested on: human fetal cardiac fibroblasts; experiment: One-step RT-PCR of elastin mRNA in cardiac fibroblast cultures; assay type: cell-based; conditions: for effect on aldosterone-induced increase in elastin mRNA levels: agent added 1 hour (CT04 2 hours) before aldosterone
[3] = tested on: human fetal cardiac fibroblasts; experiment: One-step RT-PCR of collagen type I mRNA in cardiac fibroblast cultures; assay type: cell-based; conditions: 1 hour pretreatment before 1 to 50 nmol/L aldosterone; spironolactone 2 μmol/L, RU 486 1 μmol/L
[4] = tested on: human fetal cardiac fibroblasts; experiment: Immunostaining of collagen type I fibers in confluent cultures; assay type: cell-based; conditions: pretreatment before 1 to 50 nmol/L aldosterone; RU 486 1 μmol/L; FIG. 1
[5] = tested on: human fetal cardiac fibroblasts; experiment: Quantitative assay of [3H]valine-labeled immunoprecipitable tropoelastin; assay type: cell-based; conditions: spironolactone with 1 to 50 nmol/L aldosterone, 72 hours
Experimental: Fetal human cardiac fibroblasts were grown to confluence in 35-mm culture dishes (100,000 cells/dish) in quadruplicate. […] Cultures were incubated for 72 hours, and the soluble and insoluble elastin were assessed separately in each dish. The cells were extensively washed with phosphate-buffered saline, and the soluble proteins present in the intracellular compartments were extracted overnight at 4° C. with 0.1 mol/L acetic acid in the presence of proteinase inhibitors. After centrifugation, the supernatants were precleaned by 30-minute incubation with 50 μl of 4% protein A-beaded agarose, and then 500 μl of the supernatant was incubated with 5 μg of polyclonal antibody to tropoelastin for 2 hours and subsequently with 50 μl of 4% protein A-beaded agarose for 3 hours at 4° C. The protein A-containing beads were sedimented by centrifugation, washed with immunoprecipitation buffer, mixed with scintillation fluid, and counted. […] The resulting pellets containing the insoluble elastin were then solubilized by boiling in 200 μl of 5.7 N HCl for 1 hour, and the aliquots were mixed in scintillation fluid and counted. […] Final results reflecting amounts of metabolically labeled insoluble elastin in individual cultures were normalized per their DNA content and expressed as counts per minute per 1 μg of DNA.

[6] = tested on: adult human cardiac fibroblasts; experiment: One-step RT-PCR of elastin mRNA in adult cardiac fibroblasts; assay type: cell-based; conditions: 1 hour pretreatment before aldosterone
[7] = tested on: adult human cardiac fibroblasts; experiment: Anti-elastin immunostaining in adult cardiac fibroblasts; assay type: cell-based; conditions: spironolactone pretreatment
Experimental: Control cell cultures received an equal amount of the solvent vehicle. […] ScienCell (San Diego, Calif.). At the end of the 72-hour incubation period with the indicated treatment, confluent cultures were either fixed in ice-cold 100% methanol at -20° C. […] The cultures were then incubated for 1 hour with 10 μg/ml polyclonal antibody to tropoelastin or with 10 μg/ml polyclonal antibody to collagen type I. All cultures were then incubated for an additional hour with fluorescein-conjugated goat anti-rabbit or with fluorescein-conjugated rabbit anti-goat secondary antibodies to detect elastin and collagen type I staining, respectively. Nuclei were counterstained with propidium iodide. Secondary antibody alone was used as a control. All of the cultures were then mounted in Elvanol and examined with a Nikon Eclipse […] microscope attached to a cooled charge-coupled device camera (Retiga EX; QImaging, Surrey, BC, Canada) and a computer-generated video analysis system (Image-Pro Plus software; Media Cybernetics, Silver Spring, Md.).

IGF-IR = IGF-IR immunoprecipitation and anti-phosphotyrosine blot; assay type: cell-based, human
Experimental: Cells were lysed using an radioimmunoprecipitation assay buffer [50 mmol/L Tris-HCl, pH 7.4, 150 mmol/L NaCl, 1 mmol/L ethylenediamine tetraacetic acid, 10 mmol/L NaF, 1% Triton X-100, 0.1% sodium dodecyl sulfate, 1% sodium deoxycholate containing a cocktail of antiproteases (20 μg/ml leupeptin, 10 μg/ml aprotinin, 0.1 mmol/L phenylmethylsulfonyl fluoride, and 1 mmol/L dithiothreitol) and antiphosphates ([…] orthovanadate and 2 μg/ml pepstatin)], and 300 μg of protein extract was incubated with an antibody against IGF-IRβ for 1 hour at 4° C., followed by the addition of 4% protein A-beaded agarose left overnight, as previously described. The resulting protein-antibody conjugate was centrifuged at 4° C. and washed four times with phosphate-buffered saline. The final pellet was resuspended in sample buffer (0.5 mol/L Tris-HCl, pH 6.8, 10% sodium dodecyl sulfate, 10% glycerol, 4% 2-B-mercaptoethanol, and 0.05% bromphenol blue), and the mixture was boiled for 5 minutes. Proteins were resolved by 12% sodium dodecyl sulfate-polyacrylamide gel electrophoresis, transferred to nitrocellulose membranes, and then immunoblotted with anti-p-Tyr or anti-IGF-IR antibodies. The degree of expression or phosphorylation of immunodetected signaling molecules was measured by densitometry.
At the end of each experiment the cells were lysed as specified above, and 300 μg of protein extract were then precleared for 1 hour with normal rabbit agarose conjugated-IgG at 4° C. and incubated with rabbit polyclonal antibodies against IGF-IR-β, c-Src, or with Gα13 for 1 hour at 4° C., followed by the addition of 4% protein A-beaded agarose and left overnight. The resulting protein-antibody conjugate was centrifuged at 4° C. and washed four times with PBS. The final pellet was resuspended in sample buffer, and the proteins were resolved. Following immunoprecipitation of IGF-IR-β, the membrane was immunoblotted using monoclonal anti-p-Tyr antibody, stripped, and reprobed using anti-IGF-IR-β. Following immunoprecipitation of c-Src, the membranes were immunoblotted using polyclonal goat antibodies against anti-Gα13, while those immunoprecipitated with anti-Gα13 were developed with monoclonal anti-c-Src antibody. Blots were stripped and re-probed for equal loading.
The degree of expression or phosphorylation of immunodetected signaling molecules was measured by densitometry.

Gα13 and c-Src = experiment: Co-immunoprecipitation of Gα13 and c-Src; assay type: cell-based, human; conditions: vs untreated controls
[8] = agent added before aldosterone, readout not specified, partly data not shown

Compound: CC(C)(C)c1cc(C=C(C#N)C#N)cc(Br)c1O [AG 1024]
- effect on aldosterone-induced increase in insoluble elastin production ([1]; 72 hours): eliminated the stimulatory effect of aldosterone on elastin mRNA expression and insoluble elastin production; also recorded: returned insoluble elastin production to control values
- effect on IGF-I-induced increase in insoluble elastin production ([1]; pretreatment or siRNA transfection before 100 ng/ml IGF-I, 72 hours): could be prevented; also recorded: returned insoluble elastin production to control values
- effect on aldosterone-induced increase in elastin mRNA levels ([2]; 24 hours): eliminated the stimulatory effect of aldosterone on elastin mRNA expression; also recorded: abolished aldosterone- and IGF-I-induced increases in elastin mRNA transcript levels
- effect on IGF-I-induced increase in elastin mRNA levels ([2]; pretreatment or siRNA transfection before 100 ng/ml IGF-I): could be prevented; also recorded: abolished aldosterone- and IGF-I-induced increases in elastin mRNA transcript levels

Compound: Cc1cc2ncc(-c3ccccc3)nc2cc1C [AG 1295]
- effect on aldosterone-induced increase in elastin production (elastogenic response) [1, 8]: did not affect the aldosterone-induced increase in elastin production

Compound: COc1cc2ncnc(Nc3cccc(Cl)c3)c2cc1OC [AG 1478]
- effect on aldosterone-induced increase in elastin production (elastogenic response) [1, 8]: did not affect the aldosterone-induced increase in elastin production

Compound: COc1cccc(-c2cc(=O)c3ccccc3o2)c1N [PD 98059]
- insoluble elastin production, inhibitor alone ([1]; 10 μM, 72 hours, 10% FBS, vs untreated control): significantly increased insoluble elastin production
- effect on aldosterone-induced increase in insoluble elastin production ([1]; 72 hours): did not eliminate the elastogenic effect of aldosterone but instead led to a further increase in the production of elastin; also recorded: further increased insoluble elastin production

Compound: Cc1cc(Cn2cnc3c2C[C@@H](C(=O)O)N(C(=O)C(c2ccccc2)c2ccccc2)C3)ccc1N(C)C [PD 123319]
- effect on aldosterone-induced increase in elastin production (elastogenic response) [1, 8]: did not abrogate their elastogenic response to aldosterone

Compound: CC#C[C@]1(O)CC[C@H]2[C@@H]3CCC4=CC(=O)CCC4=C3[C@@H](c3ccc(N(C)C)cc3)C[C@@]21C [RU 486, mifepristone]
- effect on aldosterone-induced increase in collagen type I mRNA levels [3]: had no effect on the aldosterone-induced increase in collagen type I mRNA transcript levels
- effect on aldosterone-induced increase in elastin mRNA levels ([2]; 24 hours): had no effect on the aldosterone-induced increase in elastin mRNA levels; also recorded: neither spironolactone nor RU 486 eliminated this increase
- effect on aldosterone-induced collagen production [4]: but not with the glucocorticoid receptor (GR) antagonist RU 486 (1 μmol/L), abrogated aldosterone-induced collagen production

Compound: NC(=O)c1ccc(-c2nc(-c3ccc4c(c3)OCO4)c(-c3ccccn3)[nH]2)cc1 [SB 431542]
- effect on aldosterone-induced increase in elastin production (elastogenic response) [1, 8]: did not affect the aldosterone-induced increase in elastin production

Compound: C[C@@H](N)[C@H]1CC[C@H](C(=O)Nc2ccncc2)CC1 [Y-27632]
- effect on aldosterone-induced increase in elastin production (elastogenic response) [1, 8]: did not eliminate the aldosterone-induced increase in elastin mRNA expression and elastin production
- effect on aldosterone-induced increase in elastin mRNA levels ([2]; 24 hours): did not eliminate the aldosterone-induced increase in elastin mRNA expression

Compound: CCCCc1nc(Cl)c(CO)n1Cc1ccc(-c2ccccc2-c2nn[nH]n2)cc1 [losartan, Losartan]
- effect on aldosterone-induced increase in elastin production (elastogenic response) [1, 8]: did not abrogate their elastogenic response to aldosterone

Compound: CC(=O)S[C@@H]1CC2=CC(=O)CC[C@]2(C)[C@H]2CC[C@@]3(C)[C@@H](CC[C@@]34CCC(=O)O4)[C@H]12 [spironolactone]
- effect on aldosterone-induced increase in collagen type I mRNA levels [3]: returned the aldosterone-induced increase in collagen type I mRNA levels to untreated values
- effect on aldosterone-induced increase in insoluble elastin production ([1]; 72 hours): failed to prevent; also recorded: did not eliminate the increase in insoluble elastin production
- effect on aldosterone-induced increase in elastin mRNA levels ([2]; 24 hours): failed to prevent an aldosterone-induced increase in elastin mRNA expression; also recorded: neither spironolactone nor RU 486 eliminated this increase
- effect on aldosterone-induced increase in tropoelastin production [5]: failed to prevent; also recorded: did not abrogate the increase in tropoelastin production
- effect on aldosterone-induced collagen production [4]: abrogated aldosterone-induced collagen production; also recorded: eliminated any aldosterone-induced increase in collagen type I production
- effect on aldosterone-induced increase in elastin mRNA, adult cardiac fibroblasts [6]: had no effect on the aldosterone-induced increase in elastin mRNA transcript levels
- effect on aldosterone-induced increase in elastic fiber deposition, adult cardiac fibroblasts [7]: did not affect aldosterone-induced increase in elastic fiber deposition

Compound: CN[C@@H]1C[C@H]2O[C@@](C)([C@@H]1OC)n1c3ccccc3c3c4c(c5c6ccccc6n2c5c31)C(=O)NC4 [staurosporine]
- effect on aldosterone-induced increase in elastin production (elastogenic response) [1]: did not abrogate the aldosterone-induced increase in elastin production

Compound: CT04: cell-permeable Rho inhibitor (exoenzyme C3 transferase) from Cytoskeleton, Inc.
- effect on aldosterone-induced increase in elastin production (elastogenic response) [1, 8]: did not eliminate the aldosterone-induced increase in elastin mRNA expression and elastin production
- effect on aldosterone-induced increase in elastin mRNA levels ([2]; 24 hours): did not eliminate the aldosterone-induced increase in elastin mRNA expression

Compound: IGF-I: recombinant human insulin-like growth factor-I
- net production of insoluble elastin ([1]; 100 ng/ml IGF-I, 72 hours): approximately threefold increase
- elastin mRNA levels ([2]; 100 ng/ml IGF-I, 24 hours): approximately threefold increase
- tyrosine phosphorylation of the IGF-IR (IGF-IR; 10-minute exposure, 10% fetal bovine serum, aldosterone or BSA-conjugate 50 nM, IGF-I 100 ng/ml): produced a very similar effect
- tyrosine phosphorylation of the IGF-IR, dependence on serum (IGF-IR; presence vs absence of fetal bovine serum): induced phosphorylation of its IGF-IR, both in the presence and in the absence of fetal bovine serum

Compound: aluminum fluoride
- interaction between c-Src and Gα13 (Gα13 and c-Src): increased the interaction between c-Src and Gα13

Compound: pertussis toxin
- effect on aldosterone-induced increase in insoluble elastin production ([1]; 72 hours): did not inhibit the elastogenic effect of aldosterone
- effect on aldosterone-induced increase in elastin production (elastogenic response) [1, 8]: did not abrogate the aldosterone-induced increase in elastin production; also recorded: does not attenuate the pro-elastogenic effect of aldosterone
